Experimental findings from ChEMBL document CHEMBL1201862, “PubChem BioAssay data set” (2004) are described below.

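How tested: cells in 96-well plates exposed to compound for 48 hours at five concentrations. GI50 is the concentration that inhibits growth by half.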 Activity calls are given as the source filed them. Cut-off read from the data, not from the text of the source: active = GI50 up to about 1.1 µM and inactive = higher. Some results are limits rather than exact numbers.

Among the test systems are 786-0; CAKI-1; EKVX; HOP-92; HT-29; IGROV-1; KM12; NCI-H522; OVCAR-4; RXF 393; SF-539; SK-MEL-2; TK-10; NCI-H460; RPMI-8226; HCT-15.
Common to all, as to assay: NCI anticancer screen, dose series, 48 h

With `Fc1cccc2c1cc1ccc3cccc4ccc2c1c34`, the GI50 in the test with 786-0, with CAKI-1, in the test on EKVX, in the test with HOP-92, in the test on HT-29 and with IGROV-1 was > 100 µM (inactive) in each case. Further, the GI50 with KM12, with NCI-H522, in the test on OVCAR-4, with RXF 393, in the test with SF-539 and with SK-MEL-2 was > 100 µM (inactive) each time. The GI50 in the test with TK-10 is 60.1 µM (inactive).

`C#Cc1ccccc1N1C(=O)C=CC1=O`: the GI50 in the test with 786-0, with CAKI-1, in the test on EKVX, in the test on HT-29, in the test on IGROV-1 and with NCI-H460 was > 100 µM (inactive) each time. Moreover, the GI50 with NCI-H522, in the test with OVCAR-4, in the test with RPMI-8226, in the test with SK-MEL-2 and in the test on TK-10 was > 100 µM (inactive) in each case.

With `Cc1nc2cc(N)c(F)cc2[nH]1`, the GI50 in the test with 786-0, in the test on CAKI-1, in the test on EKVX, in the test with HOP-92, in the test on HT-29 and in the test with IGROV-1 was > 100 µM (inactive) each time. Further, the GI50 in the test on KM12, in the test with NCI-H460, in the test with NCI-H522, with OVCAR-4, with RXF 393 and in the test with SF-539 was > 100 µM (inactive) each time. Besides, the GI50 in the test with SK-MEL-2 and with TK-10 was > 100 µM (inactive) in each case.

Consider `CC(C)=CC(=O)CC(=O)C(=O)NCCNC(=O)C(=O)CC(=O)C=C(C)C`, for which the GI50 is > 50 µM (inactive) in the test on 786-0; > 50 µM (inactive) with CAKI-1; > 50 µM (inactive) with EKVX; more than 50 µM in the test on HCT-15; > 50 µM (inactive) in the test with HOP-92; > 50 µM (inactive) in the test on HT-29. For the same compound, the GI50 in the test with IGROV-1, in the test on KM12, in the test with NCI-H460, with OVCAR-4, with RPMI-8226 and in the test on RXF 393 was > 50 µM (inactive) in each case. The GI50 with SF-539, in the test on SK-MEL-2 and in the test on TK-10 was > 50 µM (inactive) each time.

Take `COC(=O)C(Cc1nc2ccc(Cl)cc2nc1O)/C(=N\N)C(=O)Nc1cc(C)c(Cl)cc1S(=O)(=O)O` (stereo not given): the GI50 in the test with 786-0 is > 100 µM (inactive); with CAKI-1, > 100 µM (inactive); in the test on EKVX, > 100 µM (inactive); in the test with HCT-15, more than 100 µM; in the test on HOP-92, 24.3 µM (inactive); in the test with HT-29, > 100 µM (inactive). Besides, the GI50 in the test on IGROV-1 is > 100 µM (inactive); in the test with KM12 it was > 100 µM (inactive); with NCI-H460, > 100 µM (inactive); with NCI-H522, 90.6 µM (inactive); in the test with OVCAR-4, > 100 µM (inactive); in the test on RPMI-8226, 88.3 µM (inactive). Also, the GI50 in the test on SF-539 and in the test with SK-MEL-2 was > 100 µM (inactive) each time.

Regarding `CCOC(=O)C(OCC1CC=CCC1)Sc1ccccc1` (stereo not given), the GI50 in the test on 786-0 was > 100 µM (inactive); in the test on CAKI-1, > 100 µM (inactive); in the test on EKVX, > 100 µM (inactive); with HCT-15, more than 100 µM; in the test on HOP-92, > 100 µM (inactive); with HT-29, > 100 µM (inactive). Further, the GI50 in the test with IGROV-1, in the test with KM12, in the test with NCI-H460, in the test with NCI-H522, in the test on RPMI-8226 and in the test with SF-539 was > 100 µM (inactive) in each case. In addition, the GI50 in the test with SK-MEL-2 and in the test on TK-10 was > 100 µM (inactive) throughout.

For `CC#COP(=O)(OCC)OCC`, the GI50 with 786-0 is > 100 µM (inactive); in the test on CAKI-1, > 100 µM (inactive); with EKVX it was > 100 µM (inactive); in the test on HCT-15, more than 100 µM; with HT-29, > 100 µM (inactive); in the test with IGROV-1, > 100 µM (inactive). The GI50 in the test on KM12 was > 100 µM (inactive); in the test with NCI-H460, > 100 µM (inactive); in the test with NCI-H522, > 100 µM (inactive); with OVCAR-4, > 100 µM (inactive); with RPMI-8226, 85.1 µM (inactive); with SF-539, > 100 µM (inactive). Further, the GI50 with SK-MEL-2 and in the test on TK-10 was > 100 µM (inactive) each time.

Regarding `CC(C)NC(C)C(C)c1ccccc1` (stereo not given), the GI50 in the test on 786-0, in the test with CAKI-1, in the test with EKVX, in the test with HT-29, in the test on IGROV-1 and in the test with KM12 was > 100 µM (inactive) throughout. Also, the GI50 in the test on NCI-H460, with NCI-H522, with OVCAR-4, in the test with RPMI-8226, in the test with RXF 393 and in the test with SF-539 was > 100 µM (inactive) throughout. In addition, the GI50 in the test with SK-MEL-2 and in the test on TK-10 was > 100 µM (inactive) in each case.

As for `CC(C)(C)C1=CC(=C2C(=O)C(=O)c3ccccc3C2=O)C=C(C(C)(C)C)C1=O`, the GI50 in the test on 786-0 was 34.5 µM (inactive); in the test with CAKI-1 it was 52.1 µM (inactive); with EKVX, 35.5 µM (inactive); with HCT-15, 35.5 µM; in the test with HOP-92, 28.8 µM (inactive); with HT-29, > 100 µM (inactive). For the same compound, the GI50 was 24.1 µM (inactive) with IGROV-1; > 100 µM (inactive) in the test with KM12; 85.5 µM (inactive) in the test with NCI-H460; 18.7 µM (inactive) in the test with NCI-H522; 23.8 µM (inactive) in the test with RPMI-8226; 82.2 µM (inactive) in the test with SF-539. Also, the results for the GI50 with SK-MEL-2 and in the test with TK-10 were > 100 µM (inactive) and 84.9 µM (inactive), respectively.

In the case of `COc1ccc(C(=O)O/N=C2\CCCC\C2=C/c2ccccc2)cc1`, the GI50 with 786-0 was 33.8 µM (inactive); in the test on CAKI-1, 81.5 µM (inactive); in the test with EKVX it was > 100 µM (inactive); in the test with HCT-15, more than 100 µM; in the test on HT-29, > 100 µM (inactive); in the test on IGROV-1, > 100 µM (inactive). The GI50 in the test with NCI-H460 is > 100 µM (inactive); in the test on OVCAR-4, 27.6 µM (inactive); in the test on SF-539, 27.5 µM (inactive); in the test with TK-10 it was 68.7 µM (inactive).

Consider `COC1[C@H](NC(=O)OC(C)(C)C)C(=O)N1Cc1ccccc1` (stereo not given in full), for which the GI50 in the test with 786-0 is > 100 µM (inactive); with EKVX, > 100 µM (inactive); with HCT-15, more than 100 µM; in the test on HOP-92, 74.6 µM (inactive); in the test with HT-29, > 100 µM (inactive); in the test on IGROV-1, > 100 µM (inactive). Further, the GI50 in the test on KM12, in the test with NCI-H460, in the test with OVCAR-4, with RPMI-8226, with RXF 393 and in the test on SF-539 was > 100 µM (inactive) in each case. In addition, the GI50 in the test on SK-MEL-2 and in the test with TK-10 was > 100 µM (inactive) throughout.

As for `CC(C)C(=O)N[C@@H](C)C(=O)N(Cc1ccc2ccccc2c1)N=O`, the GI50 with 786-0 was > 100 µM (inactive); in the test with CAKI-1, 40.5 µM (inactive); in the test with EKVX, > 100 µM (inactive); in the test with HCT-15 it was 77.4 µM; with HT-29, > 100 µM (inactive); with IGROV-1, 95.9 µM (inactive). The GI50 is > 10 µM (inactive) in the test on KM12; 82 µM (inactive) with NCI-H460; 54.7 µM (inactive) in the test with OVCAR-4; 43.6 µM (inactive) in the test with RPMI-8226; > 100 µM (inactive) in the test with SF-539; 98.9 µM (inactive) in the test on SK-MEL-2. Moreover, in the test on TK-10, the GI50 is > 100 µM (inactive).

As for `Cc1ccc(C2=NO[C@@H]3C(=O)N(c4ccc(Cc5ccc(N6C(=O)[C@H]7C(c8ccc(C)cc8)=NO[C@H]7C6=O)cc5)cc4)C(=O)[C@H]23)cc1`, the GI50 with 786-0 is > 100 µM (inactive); in the test with CAKI-1, > 100 µM (inactive); in the test with EKVX, > 100 µM (inactive); in the test with HCT-15, more than 100 µM; with HOP-92 it was > 100 µM (inactive); in the test with HT-29, > 100 µM (inactive). Besides, the GI50 in the test on IGROV-1, in the test on KM12, in the test with NCI-H460, in the test with OVCAR-4, with RPMI-8226 and in the test with RXF 393 was > 100 µM (inactive) throughout. Moreover, the GI50 with SF-539, in the test on SK-MEL-2 and in the test with TK-10 was > 100 µM (inactive) throughout.

`CCCC(=O)C(CC)/C(CCC(=O)N(Cc1ccccc1)Cc1ccccc1)=N/NC(=O)C[N+](C)(C)C` (stereo not given): the GI50 in the test on 786-0, in the test on CAKI-1, in the test with EKVX, in the test on HOP-92, in the test on HT-29 and in the test on IGROV-1 was > 100 µM (inactive) in each case. Besides, the GI50 in the test on KM12, in the test on NCI-H460, with NCI-H522, in the test on OVCAR-4, with RXF 393 and in the test with SF-539 was > 100 µM (inactive) in each case. For the same compound, the GI50 with SK-MEL-2 was > 100 µM (inactive).

With `CCCC(=O)Nc1ccc(O)c2c1C1CCCCCC21` (stereo not given), the GI50 with 786-0 was > 100 µM (inactive); in the test on EKVX, > 100 µM (inactive); in the test on HCT-15, 74 µM; with HT-29, > 100 µM (inactive); with KM12 it was 96.4 µM (inactive); in the test with NCI-H460, > 100 µM (inactive). Besides, the GI50 with NCI-H522 was 75.5 µM (inactive); with OVCAR-4, 68.5 µM (inactive); in the test with RPMI-8226, 63.1 µM (inactive); with RXF 393, 39.1 µM (inactive); in the test with SK-MEL-2 it was > 100 µM (inactive); with TK-10, > 100 µM (inactive).
